The values below come from patent publication US20100331297A1, “MODULATION OF PROTEIN TRAFFICKING” (FOLDRX PHARMACEUTICALS, INC., priority 2007, published 2010).

Assay [1] deals with T1, ΔF508 CFTR (Homo sapiens, UniProt P13569, DEL508-508). Nature of the assay: Corrector activity, YFP halide (iodide) quenching assay in FRT cells expressing ΔF508 CFTR. The assay is classed as cell-based. On the set-up: expressed in transfected cells; host or cells: Fischer rat thyroid (FRT) cells. Particulars: FRT cells ΔF508 CFTR/YFP, 24 hours with compound at 37° C., forskolin and genistein; read-out: Corrector EC50. The method, then: Fisher rat thyroid (FRT) cells stably expressing ΔF508 CFTR and a halide-sensitive variant of yellow fluorescent protein (YFP) were seeded into microtiter plates and allowed to grow for 24 hours at 37° C. and 5% CO2. See Pedemonte et al., J. Clin. Invest. […] Compounds in dimethylsulfoxide (DMSO) solution were pre-diluted into cell culture medium, the medium was removed from cells, and then fresh medium containing the compounds was applied. The cells were incubated for a further 24 hours at 37° C. and 5% CO2.
T1 sequence (P13569 with tags, fused parts or gaps DEL508-508): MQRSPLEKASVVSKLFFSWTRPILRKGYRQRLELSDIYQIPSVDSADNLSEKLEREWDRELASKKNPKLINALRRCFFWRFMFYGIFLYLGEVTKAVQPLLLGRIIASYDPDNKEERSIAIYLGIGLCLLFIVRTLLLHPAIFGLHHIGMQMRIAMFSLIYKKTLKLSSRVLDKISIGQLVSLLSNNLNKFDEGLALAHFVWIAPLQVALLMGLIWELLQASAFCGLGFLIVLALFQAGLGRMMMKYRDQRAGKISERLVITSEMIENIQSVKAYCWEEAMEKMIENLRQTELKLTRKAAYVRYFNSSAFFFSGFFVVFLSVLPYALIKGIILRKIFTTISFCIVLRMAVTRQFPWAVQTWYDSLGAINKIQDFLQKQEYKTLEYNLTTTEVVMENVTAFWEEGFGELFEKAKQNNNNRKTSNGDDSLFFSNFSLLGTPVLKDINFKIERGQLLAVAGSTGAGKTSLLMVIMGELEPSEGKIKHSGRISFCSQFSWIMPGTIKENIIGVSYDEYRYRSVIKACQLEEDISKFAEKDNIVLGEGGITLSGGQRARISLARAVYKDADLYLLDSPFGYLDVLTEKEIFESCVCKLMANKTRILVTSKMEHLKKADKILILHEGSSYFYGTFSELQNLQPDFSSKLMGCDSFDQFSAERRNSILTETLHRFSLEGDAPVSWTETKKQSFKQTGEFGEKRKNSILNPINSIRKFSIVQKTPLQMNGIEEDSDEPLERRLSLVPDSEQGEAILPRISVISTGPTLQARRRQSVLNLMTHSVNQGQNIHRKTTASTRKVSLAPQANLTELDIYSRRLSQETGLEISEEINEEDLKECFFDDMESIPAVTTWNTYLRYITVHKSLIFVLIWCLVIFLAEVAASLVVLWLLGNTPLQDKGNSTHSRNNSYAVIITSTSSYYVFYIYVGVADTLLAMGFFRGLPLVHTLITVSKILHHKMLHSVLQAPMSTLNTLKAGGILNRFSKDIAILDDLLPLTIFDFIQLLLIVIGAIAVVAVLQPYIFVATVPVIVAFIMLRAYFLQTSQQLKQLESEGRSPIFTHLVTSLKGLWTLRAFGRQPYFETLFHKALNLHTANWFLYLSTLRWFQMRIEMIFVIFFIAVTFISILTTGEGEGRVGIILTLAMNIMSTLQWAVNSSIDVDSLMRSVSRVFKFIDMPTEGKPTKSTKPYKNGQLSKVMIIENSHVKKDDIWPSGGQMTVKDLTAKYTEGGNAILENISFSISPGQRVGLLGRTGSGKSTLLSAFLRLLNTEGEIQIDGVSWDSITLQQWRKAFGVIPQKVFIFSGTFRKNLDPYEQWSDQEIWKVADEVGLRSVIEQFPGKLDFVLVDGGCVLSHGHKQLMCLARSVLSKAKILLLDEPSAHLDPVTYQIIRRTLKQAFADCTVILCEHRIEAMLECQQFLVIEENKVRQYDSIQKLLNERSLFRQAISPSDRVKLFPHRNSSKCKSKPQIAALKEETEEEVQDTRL
Activity of CFTR was assayed by removing the medium, washing the cell monolayer with phosphate-buffered saline solution (PBS), and then applying PBS containing forskolin and genistein. After 30 min incubation at 37° C., the plates were placed in a fluorescence plate reader equipped with a reagent injector.
Corrector activity was calculated as follows. Normalized endpoint fluorescence was calculated by dividing the endpoint fluorescence after iodide injection by the initial fluorescence reading and multiplication by 100. Corrector EC50 values were calculated from the activity vs. concentration data using a 4-parameter log fit. The bottom of the curve was constrained to zero activity (DMSO control) while the slope, EC50, and top of the curve were fitted to the data. The EC50 was determined as the concentration that corresponds to the inflection point of the fitted curve.

Assay [2] deals with T1, ΔF508 CFTR. Nature of the assay: Potentiator activity, YFP halide (iodide) quenching assay in FRT cells expressing ΔF508 CFTR, 27° C. pre-incubation. The note with it: FRT cells ΔF508 CFTR/YFP, 24 hours at 27° C., compound with forskolin 30 min. On the set-up: expressed in transfected cells; host or cells: Fischer rat thyroid (FRT) cells. The assay is classed as cell-based. The method, then:
Fisher rat thyroid (FRT) cells stably expressing ΔF508 CFTR and a halide-sensitive variant of yellow fluorescent protein (YFP) were seeded into microtiter plates and allowed to grow for 24 hours at 37° C. and 5% CO2, as described above. The medium was replaced with fresh medium and the cells were incubated for a further 24 hours at 27° C. and 5% CO2 to increase the level of mutant CFTR at the cell surface.
Compounds in DMSO solution were pre-diluted into phosphate-buffered saline solution (PBS) containing forskolin. Activity of CFTR was assayed by removing the medium, washing the cell monolayer with PBS, and then applying the compounds diluted in PBS containing forskolin. After 30 min of incubation at 37° C., the plates were placed in a fluorescence plate reader equipped with a reagent injector. After measuring an initial fluorescence value, iodide-containing buffer was injected and the decrease in fluorescence was followed at excitation and emission wavelengths of 485 and 530 nm, respectively.
Potentiator activity was calculated as follows. Normalized endpoint fluorescence was calculated by dividing the endpoint fluorescence after iodide injection by the initial fluorescence reading and multiplication by 100. Potentiator EC50 values were calculated by the same method as corrector EC50 values.

Turning to `CCNC(=O)N1CC(n2nc(-c3ccc(Cl)cc3)c3c(N)ncnc32)C1` [Compound No. 275, 3-[4-Amino-3-(4-chloro-phenyl)-pyrazolo[3,4-d]pyrimidin-1-yl]azetidine-1-carboxylic acid ethylamide], the EC50 at ΔF508 CFTR [1] and at ΔF508 CFTR [2] was above 15 µM in each case.
`COC(=O)Nc1ncnc2c1c(-c1ccc(Cl)cc1)nn2C(C)(C)C` [Compound No. 294, [1-tert-Butyl-3-(4-chloro-phenyl)-1H-pyrazolo[3,4-d]pyrimidin-4-yl]-carbamic acid methyl ester]: the EC50 at ΔF508 CFTR [1] and at ΔF508 CFTR [2] was above 15 µM each time.
On to `CC(=O)N1CC(n2nc(-c3ccc(Cl)cc3)c3c(N)ncnc32)C1` [Compound No. 295, 1-{3-[4-Amino-3-(4-chloro-phenyl)-pyrazolo[3,4-d]pyrimidin-1-yl]-azetidin-1-yl}-ethanone], for which the EC50 at ΔF508 CFTR [1] and on ΔF508 CFTR [2] was above 15 µM throughout.
As for `CN1CC(n2nc(-c3ccc(Cl)cc3)c3c(N)ncnc32)C1` [Compound No. 296, 3-(4-Chloro-phenyl)-1-(1-methyl-azetidin-3-yl)-1H-pyrazolo[3,4-d]pyrimidin-4-ylamine], the EC50 on ΔF508 CFTR [1] and at ΔF508 CFTR [2] was above 15 µM in each case.
For the compound `CC(C)(C)OC(=O)N1CC(n2nc(Cc3cccc4ccccc34)c3c(N)ncnc32)C1` [Compound No. 297, 3-(4-Amino-3-naphthalen-1-ylmethyl-pyrazolo[3,4-d]pyrimidin-1-yl)-azetidine-1-carboxylic acid tert-butyl ester], the results for the EC50 on ΔF508 CFTR [1] and on ΔF508 CFTR [2] were above 15 µM and 2 to 5 µM, respectively.
The matching figures for `CC(C)(C)n1nc(-c2ccc(Cl)cc2)c2c(NC(=O)O[C@H]3CCOC3)ncnc21` [Compound No. 301, [1-tert-Butyl-3-(4-chloro-phenyl)-1H-pyrazolo[3,4-d]pyrimidin-4-yl]-carbamic acid tetrahydro-furan-3-yl ester]: 5 to 10 µM and below 2 µM.
The matching figures for `CC(C)N1CC(n2nc(-c3ccc(Cl)cc3)c3c(N)ncnc32)C1` [Compound No. 304, 3-(4-Chloro-phenyl)-1-(1-isopropyl-azetidin-3-yl)-1H-pyrazolo[3,4-d]pyrimidin-4-ylamine]: 5 to 10 µM and above 15 µM.
On to `CCn1cc(-c2ccc(Cl)cc2)c2c(NS(C)(=O)=O)ncnc21` [Compound No. 305, N-[5-(4-Chloro-phenyl)-7-ethyl-7H-pyrrolo[2,3-d]pyrimidin-4-yl]-methanesulfonamide], for which the EC50 at ΔF508 CFTR [1] and at ΔF508 CFTR [2] was above 15 µM throughout.
As for `CC(C)(C)OC(=O)N1CC(n2nc(Sc3ccccc3)c3c(N)ncnc32)C1` [Compound No. 320, 3-(4-Amino-3-phenylsulfanyl-pyrazolo[3,4-d]pyrimidin-1-yl)-azetidine-1-carboxylic acid tert-butyl ester], the EC50 was above 15 µM at ΔF508 CFTR [1] and 2 to 5 µM at ΔF508 CFTR [2].
For `CC(C)(C)n1nc(Oc2cccc(Cl)c2)c2c(NC(=O)c3ccccc3)ncnc21` [Compound No. 332, N-[1-tert-Butyl-3-(3-chloro-phenoxy)-1H-pyrazolo[3,4-d]pyrimidin-4-yl]-benzamide] the same measures were above 15 µM and below 2 µM.
For `CCn1cc(Sc2ccccc2)c2c(N)ncnc21` [Compound No. 333, 7-Ethyl-5-phenylsulfanyl-7H-pyrrolo[2,3-d]pyrimidin-4-ylamine] the same measures were 2 to 5 µM and below 2 µM.
For `CC(C)(C)OC(=O)N1CC(n2nc(Oc3ccccc3)c3c(N)ncnc32)C1` [Compound No. 341, 3-(4-Amino-3-phenoxy-pyrazolo[3,4-d]pyrimidin-1-yl)-azetidine-1-carboxylic acid tert-butyl ester] the same measures were above 15 µM and 5 to 10 µM.
For the compound `CCOC(=O)N1CC(n2nc(Sc3cccc(Cl)c3)c3c(N)ncnc32)C1` [Compound No. 345, 3-[4-Amino-3-(3-chloro-phenylsulfanyl)-pyrazolo[3,4-d]pyrimidin-1-yl]-azetidine-1-carboxylic acid ethyl ester], the EC50 was above 15 µM on ΔF508 CFTR [1] and 2 to 5 µM on ΔF508 CFTR [2].
Regarding `CCNC(=O)N1CC(n2nc(Sc3cccc(Cl)c3)c3c(N)ncnc32)C1` [Compound No. 346, 3-[4-Amino-3-(3-chloro-phenylsulfanyl)-pyrazolo[3,4-d]pyrimidin-1-yl]-azetidine-1-carboxylic acid ethylamide], the EC50 on ΔF508 CFTR [1] and at ΔF508 CFTR [2] was above 15 µM throughout.
For `CN1CC[C@@H](n2nc(-c3ccc(Cl)cc3)c3c(N)ncnc32)C1` [Compound No. 356, 3-(4-Chloro-phenyl)-1-(1-methyl-pyrrolidin-3-yl)-1H-pyrazolo[3,4-d]pyrimidin-4-ylamine], the EC50 is below 2 µM on ΔF508 CFTR [1] and above 15 µM at ΔF508 CFTR [2].
As to `CCn1nc(-c2ccc(Cl)cc2)c2c(N)ncnc21` [compound 67], the EC50 is above 15 µM at ΔF508 CFTR [1] and 2 to 5 µM on ΔF508 CFTR [2].
The matching figures for `Cc1ccc(-c2nn(C(C)(C)C)c3ncnc(NC(=O)c4ccc(F)cc4)c23)cc1` [compound 94]: 5 to 10 µM and above 15 µM.
On to `Cc1ccc(C(=O)Nc2ncnc3c2c(-c2ccc(C)cc2)nn3C(C)(C)C)cc1` [compound 95], for which the EC50 on ΔF508 CFTR [1] was above 15 µM; at ΔF508 CFTR [2], 2 to 5 µM.
For `Cc1ccc(-c2nn(C(C)(C)C)c3ncnc(NC(=O)c4ccccc4Cl)c23)cc1` [compound 99] the same measures were above 15 µM and 2 to 5 µM.
For `Cc1cccc(-c2nn(C(C)(C)C)c3ncnc(N)c23)c1` [compound 104] the same measures were above 15 µM and 2 to 5 µM.
For `CC(=O)Nc1ncnc2c1c(-c1ccc(F)cc1)nn2C(C)(C)C` [compound 118, N-[1-tert-Butyl-3-(4-fluoro-phenyl)-1H-pyrazolo[3,4-d]pyrimidin-4-yl]-acetamide] the same measures were above 15 µM and above 15 µM.
For `CC(C)(C)n1nc(-c2ccc3c(c2)OCO3)c2c(N)ncnc21` [compound 131], the EC50 was above 15 µM on ΔF508 CFTR [1] and 2 to 5 µM on ΔF508 CFTR [2].
The matching figures for `CC(C)(C)n1nc(-c2cccc(Oc3ccccc3)c2)c2c(N)ncnc21` [compound 132]: above 15 µM and above 15 µM.
For `Cc1cccc(Oc2nn(C(C)(C)C)c3ncnc(N)c23)c1C` [compound 167] the same measures were above 15 µM and below 2 µM.
The matching figures for `CC(C)(C)n1nc(Oc2ccc(Cl)cc2)c2c(N)ncnc21` [compound 168]: above 15 µM and below 2 µM.
For `CCn1nc(-c2ccc(N=[N+]=[N-])cc2)c2c(N)ncnc21` [compound 170], the EC50 on ΔF508 CFTR [1] was 5 to 10 µM; on ΔF508 CFTR [2], above 15 µM.
The matching figures for `CC(C)(C)n1nc(Sc2ccccc2)c2c(N)ncnc21` [compound 172]: above 15 µM and below 2 µM.
For `CC(C)(C)n1nc([S+]([O-])c2ccccc2)c2c(N)ncnc21` (stereo not shown) [compound 173, 3-benzenesulfinyl-1-tert-butyl-1H-pyrazolo[3,4-d]pyrimidin-4-ylamine] the same measures were above 15 µM and above 15 µM.
For `CC(C)(C)n1nc(Oc2ccc(F)c(F)c2)c2c(N)ncnc21` [compound 174] the same measures were above 15 µM and below 2 µM.
For `CC(C)(C)n1nc(Oc2ccc(F)c(Cl)c2)c2c(N)ncnc21` [compound 176], the EC50 is above 15 µM at ΔF508 CFTR [1] and below 2 µM at ΔF508 CFTR [2].
For `Cc1ccc(Oc2nn(C(C)(C)C)c3ncnc(N)c23)cc1C` [compound 177], the results for the EC50 on ΔF508 CFTR [1] and on ΔF508 CFTR [2] were above 15 µM and below 2 µM, respectively.
For `CC(C)(C)n1nc(Oc2cccc(F)c2F)c2c(N)ncnc21` [compound 178] the same measures were above 15 µM and 2 to 5 µM.
For `Cc1cc(Oc2nn(C(C)(C)C)c3ncnc(N)c23)ccc1F` [compound 179] the same measures were above 15 µM and below 2 µM.
For `Cc1cc(C)cc(Oc2nn(C(C)(C)C)c3ncnc(N)c23)c1` [compound 180], the figures for the EC50 at ΔF508 CFTR [1] and on ΔF508 CFTR [2] were 5 to 10 µM and below 2 µM, respectively.
For `CC(C)(C)n1nc(Oc2cccnc2)c2c(N)ncnc21` [compound 183] the same measures were above 15 µM and above 15 µM.
